# Values of other authors in US20190214145A1, “Method and systems for creating and screening patient metabolite profile to diagnose current medical condition, diagnose current treatment state and recommend new treatment regimen” (priority 2018, published 2019).
# How the values were obtained:
# [1] = upon inhalation, even in low concentrations
# [2] = vaporizing temperature
# [3] = intravenous, amount equivalent to one cannabis cigarette
# submandibular gland = settings: rats, saliva from ducts of the submandibular gland
smiles,measurement,setting,value
CC(C)=CCCC(C)CCO (centres unmarked) [Citronellol],Sedation,[1],deeply sedating
"CC12CCC(CC1)C(C)(C)O2 [1,8-cineole]",BP,[2],176 °C
CCCCCc1cc(O)c2c(c1)OC(C)(C)[C@@H]1CCC(C)=C[C@@H]21 [Δ9THC],Heart rate,[3],significantly increases
same,Phosphoenolpyruvate (PEP),[3],decreases
same,Systolic or diastolic arterial pressure,[3],without any change
same,BP,[2],157 °C
Cc1ccc(C(C)C)cc1 [P-cymene],BP,[2],177 °C
Cc1c(C(=O)c2cccc3ccccc23)c2cccc3c2n1[C@H](CN1CCOCC1)CO3 [WIN55212-2T],Ca 2+ concentration of saliva,submandibular gland,increase
same,Other electrolytes of saliva,submandibular gland,no changes
same,Saliva flow rate,submandibular gland,significant decrease
same,Total protein content of saliva,submandibular gland,increase
CC1=CCC(O)(C(C)C)CC1 (centres unmarked) [Terpinol-4-ol],BP,[2],209 °C
CC(C)=C1CC[C@@H](C)CC1=O [Pulegone],BP,[2],224 °C
CCCCCc1cc2c(c(O)c1C(=O)O)[C@@H]1C=C(C)CC[C@H]1C(C)(C)O2 [Δ9THCA],BP,[2],104 °C
CC[C@H](CC[C@@H](C)[C@H]1CC[C@H]2[C@@H]3CC=C4C[C@@H](O)CC[C@]4(C)[C@H]3CC[C@]12C)C(C)C [β-sitosterol],BP,[2],134 °C
C=CC(C)(O)CCC=C(C)C (centres unmarked) [Linalool],BP,[2],198 °C
CCCCC/C=C\C/C=C\C/C=C\C/C=C\CCCC(=O)N[C@H](C)CO [(R)-(+)-methanandamide],Ca 2+ concentration of saliva,submandibular gland,increase
same,Other electrolytes of saliva,submandibular gland,no changes
same,Saliva flow rate,submandibular gland,significant decrease
same,Total protein content of saliva,submandibular gland,increase
C=CC(=C)CCC=C(C)C [β-myrcene],BP,[2],167 °C
"C=C(C)[C@@H]1CCC(C)=C[C@H]1c1c(O)cc(CCCCC)cc1O [CBD, reference compound]",BP,[2],180 °C
CC1=CCC2C(C1)C2(C)C (centres unmarked) [Δ-3-carene],BP,[2],168 °C
CC1=CC[C@@H](C(C)(C)O)CC1 [α-terpinol],BP,[2],156 °C
O=c1cc(-c2ccc(O)cc2)oc2cc(O)cc(O)c12 [Apigenin],BP,[2],178 °C
CC1=CCC(C(C)(C)O)CC1 (stereo not drawn) [α-terpineol],BP,[2],217 °C
same,Sedation,[1],deeply sedating
COc1cc(-c2cc(=O)c3c(O)c(C/C=C(\C)CCC=C(C)C)c(O)cc3o2)ccc1O [Cannflavin A],BP,[2],182 °C
C=C(C)[C@H]1CC=C(C)CC1 [D-limonene],BP,[2],177 °C
CCCn1c(C)c(C(=O)c2cccc3ccccc23)c2ccccc21 [JWH015],Ca 2+ concentration of saliva,submandibular gland,increase
same,Other electrolytes of saliva,submandibular gland,no changes
same,Saliva flow rate,submandibular gland,significant decrease
same,Total protein content of saliva,submandibular gland,increase
CCCCCc1cc2c(c(O)c1C(=O)O)C=CC(C)(CCC=C(C)C)O2 (centres unmarked) [CBCA],BP,[2],145 °C
CC1(C)C2CCC1(C)C(O)C2 (centres unmarked) [Borneol],BP,[2],210 °C
C=C(C)[C@@H]1CCC(C)=C[C@H]1c1c(O)cc(CCCCC)c(C(=O)O)c1O [CBDA],BP,[2],120 °C
CCCCCc1cc(O)c2c(c1)OC(C)(CCC=C(C)C)C=C2 (centres unmarked) [CBC],BP,[2],220 °C
C=C1CC/C=C(\C)CC[C@@H]2[C@@H]1CC2(C)C [β-caryophyllene],BP,[2],199 °C
